In patent US9365523B2, “Imidazolyl amide compounds and uses related thereto” (priority 2011, dated 2016):

Experiments:
MeV-Alaska [1] = assay: Viral CPE-reduction assay
Experimental: To rapidly pre-screen small libraries of compound analogs for antiviral activity, Vero-SLAM cells were infected with MeV-Alaska in four replicates per compound concentration in a 96-well plate format at an MOI of 0.4 pfu/cell in the presence of the inhibitor analyzed ranging from 75 μM to 293 nM in two-fold dilutions. At 96 hours post-infection, cell monolayers were subjected to crystal violet staining (0.1% crystal violet in 20% ethanol), and the absorbance of dried plates at 560 nm determined. Virus-induced cytopathicity was then calculated according to the formula [% rel. CPE=100-(experimental-minimum)/(maximum-minimum)*100], with minimum referring to infected, vehicle-treated wells and maximum to mock-infected wells.

MeV-Alaska [2] = assay: Antiviral activity of compound analogs against MeV-Alaska (tables 1-5); assay type: cell-based, measles virus
MeV-Alaska [3] = assay: Virus yield reduction assay, MeV; assay type: cell-based, measles virus; conditions: highest concentration assessed (50 μM); Vero-Slam cells
[4] = Measles morbillivirus, read-out: EC50, suppression of viral cytopathic effect (CPE), CPE

Structure (SMILES): Cc1ccc(NC(=O)C(C)Sc2nc3ccccc3n2CCN2CCN(C(C)c3ccc(F)cc3)CC2)c(Cl)c1 (centres unmarked)
- EC50 (MeV-Alaska [1]; [4]): 2.17 µM

Structure (SMILES): COc1ccc(-n2c(SC(CCO)C(=O)Nc3ccccc3)nc3ccccc32)cc1 (centres unmarked)
- EC50 (MeV-Alaska [1]; [4]): 27.8 µM

Structure (SMILES): Cc1ccc(NC(=O)C(C)Sc2nc3ccccc3n2CCN2CCNCC2)c(Cl)c1 (centres unmarked)
- EC50 (MeV-Alaska [1]; [4]): > 75 µM

Structure (SMILES): Cc1ccc(NC(=O)C(C)Sc2nc3ccccc3n2CC2CCNCC2)c(Cl)c1 (centres unmarked)
- EC50 (MeV-Alaska [1]; [4]): > 75 µM

Structure (SMILES): COc1ccc(-n2c(SC(C)C(=O)Nc3cc(Br)ccc3Br)nc3ccccc32)cc1 (centres unmarked) [Compound 2]
- EC50 (MeV-Alaska [2]; Table 1): 1.7 µM

Structure (SMILES): Cc1ccc(NC(=O)C(C)Sc2nc3ccccc3n2C2CCCN(CCO)C2)c(Cl)c1 (centres unmarked)
- EC50 (MeV-Alaska [1]; [4]): 10 µM

Structure (SMILES): Cc1cccc(-n2c(SC/C=C/c3ccccc3)nc3ccccc32)c1 [Compound 166]
- EC50 (MeV-Alaska [2]; Measles morbillivirus, Table 5): > 10 µM

Structure (SMILES): Cc1ccc(NC(=O)C(C)Sc2nc3ccccc3n2-c2cccc(CO)c2)c(Cl)c1 (centres unmarked) [drawing 230]
- EC50 (MeV-Alaska [1]; [4]): 0.7 µM

Structure (SMILES): Cc1ccc(NC(=O)CSc2nc3cc(C)c(C)cc3n2Cc2ccc(F)cc2)c(Cl)c1 [Compound 144]
- EC50 (MeV-Alaska [2]; Measles morbillivirus, Table 5): > 75 µM

Structure (SMILES): CCOc1ccc(-n2c(SC(C)C(=O)Nc3cc(C)cc(C)n3)nc3ccccc32)cc1 (centres unmarked) [Compound 115]
- EC50 (MeV-Alaska [2]; Table 3): 1.5 µM

Structure (SMILES): COc1ccc(-n2c(SC(C)C(=O)Nc3nccs3)nc3ccccc32)cc1 (centres unmarked) [Compound 36]
- EC50 (MeV-Alaska [2]; Table 1): 4 µM

Structure (SMILES): COc1ccc(-n2c(SC(C)C(=O)Nc3ccc(NC(C)=O)c(C)c3)nc3ccccc32)cc1 (centres unmarked) [Compound 17]
- EC50 (MeV-Alaska [2]; Table 1): > 9.3 µM

Structure (SMILES): CC(Sc1nc2ccccc2n1-c1ccc(O)cc1)C(=O)Nc1ncc(Cl)cc1Cl (centres unmarked) [Compound 103]
- EC50 (MeV-Alaska [2]; Table 3): 7.7 µM

Structure (SMILES): COc1ccc(-n2c(CCC(=O)Nc3ccc(C)cc3Cl)nc3ccccc32)cc1 [Compound 159]
- EC50 (MeV-Alaska [2]; Measles morbillivirus, Table 5): > 150 µM

Structure (SMILES): Cc1ccc(NC(=O)C(C)Sc2nc3ccccc3n2-c2ccc(CN3CCN(C)CC3)cc2)c(Cl)c1 (centres unmarked) [Compound 63]
- EC50 (MeV-Alaska [2]; Table 2): 4.9 µM

Structure (SMILES): Cc1ccc(NC(=O)C(C)Sc2nc3ccccc3n2-c2ccc(N=[N+]=[N-])cc2)c(Cl)c1 (centres unmarked) [Compound 95]
- EC50 (MeV-Alaska [2]; Table 2): 0.31 µM

Structure (SMILES): COc1ccc(-n2c(SC(C)C(=O)Nc3ccc(F)cc3)nc3ccccc32)cc1 (centres unmarked) [Compound 47]
- EC50 (MeV-Alaska [2]; Table 1): > 10 µM

Structure (SMILES): C#CCn1c(SC(C)C(=O)Nc2ccc(C)cc2Cl)nc(-c2ccccc2)c1-c1ccccc1 (centres unmarked) [Compound 153]
- EC50 (MeV-Alaska [2]; Measles morbillivirus, Table 5): > 75 µM

Structure (SMILES): Cc1ccc(NC(=O)C(C)Sc2nc3ccccc3n2-c2ccc(CO)cc2)c(Cl)c1 (centres unmarked) [drawing 229]
- EC50 (MeV-Alaska [1]; [4]): 3.91 µM

Structure (SMILES): Cc1ccc(NC(=O)C(C)Sc2nc3ccccc3n2CCN2CCOCC2)c(Cl)c1 (centres unmarked)
- EC50 (MeV-Alaska [1]; [4]): 4.85 µM

Structure (SMILES): COc1ccc(-n2c(SCC(=O)Nc3ncc(Cl)cc3Cl)nc3ccccc32)cc1 [Compound 155]
- EC50 (MeV-Alaska [2]; Measles morbillivirus, Table 5): 0.44 µM

Structure (SMILES): Cc1ccc(NC(=O)C(C)Sc2nc3ccccc3n2C2CCNCC2)c(Cl)c1 (centres unmarked) [drawing 219]
- EC50 (MeV-Alaska [1]; [4]): > 75 µM

Structure (SMILES): COc1ccc(-n2c(SC(C)C(=O)Nc3ccc([N+](=O)[O-])cc3C)nc3ccccc32)cc1 (centres unmarked) [Compound 32]
- EC50 (MeV-Alaska [2]; Table 1): > 9.3 µM

Structure (SMILES): CCOc1ccc(-n2c(SC(C)C(=O)Nc3ncc(Cl)cc3Cl)nc3ccccc32)cc1 (centres unmarked) [Compound 102]
- EC50 (MeV-Alaska [2]; Table 3): 0.2 µM

Structure (SMILES): COc1ccc(-n2c(SC(C)C(=O)Nc3ccc(Cl)cc3C)nc3ccccc32)cc1 (centres unmarked) [Compound 20]
- EC50 (MeV-Alaska [2]; Table 1): 1.4 µM

Structure (SMILES): Cc1ccc(NC(=O)C(C)Sc2nc3ccccc3n2-c2ccc(CC=O)cc2)c(Cl)c1 (centres unmarked) [drawing 225]
- EC50 (MeV-Alaska [1]; [4]): 8.5 µM

Structure (SMILES): CCN1CCN(CCn2c(SC(C)C(=O)Nc3ccc(C)cc3Cl)nc3ccccc32)CC1 (centres unmarked)
- EC50 (MeV-Alaska [1]; [4]): 18.8 µM

Structure (SMILES): O=C1Cc2c([nH]c3ccc([N+](=O)[O-])cc23)-c2ccccc2N1 [Alsterpaullone, reference compound]
- reduction in MeV yields (MeV-Alaska [3]): only a marginal reduction

Structure (SMILES): Cc1ccc(NC(=O)C(C)Sc2nc3ccccc3n2-c2ccc(OCCO)cc2)c(Cl)c1 (centres unmarked) [Compound 58]
- EC50 (MeV-Alaska [2]; Table 2): 4.6 µM

Structure (SMILES): COC(=O)COc1ccc(-n2c(SC(C)C(=O)Nc3ccc(C)cc3Cl)nc3ccccc32)cc1 (centres unmarked) [Compound 69]
- EC50 (MeV-Alaska [2]; Table 2): > 9.3 µM

Structure (SMILES): Cc1ccc(NC(=O)C(C)Sc2nc3ccccc3n2-c2ccc(N(C)CCN(C)C)cc2)c(Cl)c1 (centres unmarked) [Compound 60]
- EC50 (MeV-Alaska [2]; Table 2): 2.9 µM

Structure (SMILES): Cc1ccc(NC(=O)C(C)Sc2nc(-c3ccccc3)c(-c3ccccc3)[nH]2)c(Cl)c1 (centres unmarked) [Compound 152]
- EC50 (MeV-Alaska [2]; Measles morbillivirus, Table 5): > 75 µM

Structure (SMILES): Cc1ccc(NC(=O)C(C)Sc2nc3ccccc3n2CCN2CCN(C(=O)OC(C)(C)C)CC2)c(Cl)c1 (centres unmarked)
- EC50 (MeV-Alaska [1]; [4]): 1.32 µM

Structure (SMILES): Cc1ccc(NC(=O)C(C)Sc2nc3ccccc3n2-c2cccc(CN3CCN(C)CC3)c2)c(Cl)c1 (centres unmarked) [Compound 65]
- EC50 (MeV-Alaska [2]; Table 2): 1.3 µM

Structure (SMILES): Cc1ccc(NC(=O)C(C)Sc2nc3ccccc3n2-c2ccc(CC=O)cc2)c(Cl)c1 (centres unmarked) [Compound 62]
- EC50 (MeV-Alaska [2]; Table 2): 8.5 µM

Structure (SMILES): Cc1ccc(NC(=O)C(C)Sc2nc3ccccc3n2[C@H]2CC[C@H](O)CC2)c(Cl)c1 (some centres unmarked)
- EC50 (MeV-Alaska [1]; [4]): 2.74 µM

Structure (SMILES): COc1ccc(-n2c(SC(C)C(=O)Nc3nc(C)c(Br)cc3Br)nc3ccccc32)cc1 (centres unmarked) [Compound 41]
- EC50 (MeV-Alaska [2]; Table 1): 0.5 µM

Structure (SMILES): CCN1CCCC1Cn1c(SC(C)C(=O)Nc2ccc(C)cc2Cl)nc2ccccc21 (centres unmarked) [drawing 215]
- EC50 (MeV-Alaska [1]; read-out: EC50, suppression of viral cytopathic effect (CPE), CPE): 5.52 µM
